The text below walks through data of US7538123B2, “Indole derivative having piperidine ring” (Eisai R & D Management Co., Ltd., priority 2004, dated 2009).

Like-named read-outs stand apart in the source and are kept apart here.

In this test the target is T1, serotonin 1A receptor (Mus musculus, UniProt Q64264).
T1 construct: into the rectum of CD-1 (ICR) male mice (25-45 g); from tissue; host or cells: living CD-1 (ICR) male mice (whole animal)
T1 sequence (Q64264 1-421): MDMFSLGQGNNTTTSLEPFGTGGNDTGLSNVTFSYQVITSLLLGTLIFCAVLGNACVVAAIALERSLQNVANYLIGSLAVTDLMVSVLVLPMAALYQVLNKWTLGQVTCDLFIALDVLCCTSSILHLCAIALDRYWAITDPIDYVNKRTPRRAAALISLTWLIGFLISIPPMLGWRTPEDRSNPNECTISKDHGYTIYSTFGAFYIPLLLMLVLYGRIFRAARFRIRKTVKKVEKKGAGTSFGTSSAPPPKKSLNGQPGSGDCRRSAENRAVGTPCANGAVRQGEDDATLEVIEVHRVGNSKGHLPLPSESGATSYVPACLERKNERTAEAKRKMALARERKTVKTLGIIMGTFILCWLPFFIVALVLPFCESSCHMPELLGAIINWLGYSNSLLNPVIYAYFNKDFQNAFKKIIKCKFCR
Nature of the test: Antagonistic effect on serotonin 1A receptor agonist-induced hypothermia in mouse. In kind it is in vivo. The settings on record: sc. The protocol: (1) A thermistor probe was inserted at a depth of approximately 2 cm into the rectum of CD-1 (ICR) male mice (25-45 g), so as to measure the body temperature thereof. Body temperature is decreased by subcutaneous administration of serotonin 1A receptor agonist (8-hydroxy-dipropylaminotetralin) 0.5 mg/kg. Since a serotonin 1A antagonist inhibits such action, the antagonistic effect of a test substance to a serotonin 1A receptor was evaluated using the inhibitory effect of the hypothermia as an index. A test substance was administered 15 minutes before the administration of the serotonin 1A agonist. A serotonin 1A partial agonist alone decreases the body temperature, depending on the degree of the agonistic action thereof. In addition, it has a weak antagonistic effect on 8-hydroxy-dipropylaminotetralin-induced hypothermia. (2) Results

Setting [1] is: 15 minutes before 8-hydroxy-dipropylaminotetralin 0.5 mg/kg sc, inhibition of hypothermia, CD-1 (ICR) male mice, read-out: ED50.

Broadly, the ED50 is the midpoint of the dose-response relation.

Turning to `COc1cc2nc(C)oc2cc1CCN1CCC(n2ccc3ccc(C(N)=O)cc32)CC1` [Compound 8, 1-{1-[2-(5-methoxy-2-methylbenzoxazol-6-yl)ethyl]piperidin-4-yl}-1H-indole-6-carboxamide], under setting [1], the ED50 was 0.07 mg/kg.

Take `COc1ccc2c(c1CCN1CCC(n3ccc4ccc(C(N)=O)cc43)CC1)OC(C)(C)CC2=O` [Compound 22, 1-{1-[2-(7-methoxy-2,2-dimethyl-4-oxochroman-8-yl)ethyl]piperidin-4-yl}-1H-indole-6-carboxamide]: under setting [1], the ED50 worked out at 0.1 mg/kg.

In the case of `COc1cc2c(cc1CCN1CCC(n3ccc4ccc(C(N)=O)cc43)CC1)N(C)CCC2` [Compound 53, 1-{1-[2-(6-methoxy-1-methyl-1,2,3,4-tetrahydroquinolin-7-yl)ethyl]piperidin-4-yl}-1H-indole-6-carboxamide], the ED50 under setting [1] worked out at 0.3 mg/kg.

The compound `COc1ccc2c(C)noc2c1CCN1CCC(n2ccc3ccc(C(N)=O)cc32)CC1` [Compound 1, 1-{1-[2-(6-methoxy-3-methylbenz[d]isoxazol-7-yl)ethyl]piperidin-4-yl}-1H-indole-6-carboxamide] came in with an ED50 of 0.3 mg/kg.

Take `COc1cc2onc(C)c2cc1CCN1CCC(n2ccc3ccc(C(N)=O)cc32)CC1` [Compound 2, 1-{1-[2-(6-methoxy-3-methylbenzo[d]isoxazol-5-yl)ethyl]piperidin-4-yl}-1H-indole-6-carboxamide]: the ED50 under setting [1] stood at 0.4 mg/kg.

Consider `COc1ccc2c(c1CCN1CCC(n3ccc4ccc(C(N)=O)cc43)CC1)OCCC2=O` [Compound 47, 1-{1-[2-(7-methoxy-4-oxochroman-8-yl)ethyl]piperidin-4-yl}-1H-indole-6-carboxamide], for which the ED50 under setting [1] is 0.21 mg/kg.

For `COc1cc2c(cc1CCN1CCC(n3ccc4ccc(C(N)=O)cc43)CC1)C(=O)CC2` [Compound 26, 1-{1-[2-(6-methoxy-3-oxoindan-5-yl)ethyl]piperidin-4-yl}-1H-indole-6-carboxamide], the ED50 under setting [1] came out at 0.25 mg/kg.

For the compound `COc1cc2ccccc2cc1CCN1CCC(n2ccc3ccc(C(N)=O)cc32)CC1` [Compound 45, 1-{1-[2-(3-methoxynaphthalen-2-yl)ethyl]piperidin-4-yl}-1H-indole-6-carboxamide], the ED50 under setting [1] was 0.26 mg/kg.

As for `CNC(=O)c1ccc2ccn(C3CCN(CCc4c(OC)ccc5c4OC(C)(C)CC5O)CC3)c2c1` (centres unmarked) [Compound 48, 1-{1-[2-(4-hydroxy-7-methoxy-2,2-dimethylchroman-8-yl)ethyl]piperidin-4-yl}-N-methyl-1H-indole-6-carboxamide], the ED50 came out at 0.06 mg/kg.

`COc1ccc2sc(C)nc2c1CCN1CCC(n2ccc3ccc(C(N)=O)cc32)CC1` [Compound 27, 1-{1-[2-(5-methoxy-2-methylbenzothiazol-4-yl)ethyl]piperidin-4-yl}-1H-indole-6-carboxamide]: under setting [1], the ED50 is 0.42 mg/kg.

For `CCc1nc2ccc(OC)c(CCN3CCC(n4ccc5ccc(C(N)=O)cc54)CC3)c2o1` [Compound 5], under setting [1], the ED50 came to 0.24 mg/kg.

Consider `CCc1nc2cc(CCN3CCC(n4ccc5ccc(C(N)=O)cc54)CC3)c(OC)cc2o1` [Compound 6, 1-{1-[2-(2-ethyl-6-methoxybenzoxazol-5-yl)ethyl]piperidin-4-yl}-1H-indole-6-carboxamide], for which, under setting [1], the ED50 was 0.35 mg/kg.

On to `COc1cc2c(cc1CCN1CCC(n3ccc4ccc(C(N)=O)cc43)CC1)C(=O)CC(C)(C)O2` [Compound 24, 1-{1-[2-(7-methoxy-2,2-dimethyl-4-oxochroman-6-yl)ethyl]piperidin-4-yl}-1H-indole-6-carboxamide], for which, under setting [1], the ED50 was 0.3 mg/kg.

In the case of `COc1ccc2c(c1CCN1CCC(n3ccc4ccc(C(N)=O)cc43)CC1)CCN(C)C2=O` [Compound 34, 1-(1-(2-(6-methoxy-2-methyl-1-oxo-1,2,3,4-tetrahydroisoquinolin-5-yl)ethyl)piperidin-4-yl)-1H-indole-6-carboxamide], under setting [1], the median effective dose (ED50) stood at 0.37 mg/kg.

For the compound `CCN1C(=O)CCc2cc(OC)c(CCN3CCC(n4ccc5ccc(C(N)=O)cc54)CC3)cc21` [Compound 59, 1-{1-[2-(1-ethyl-6-methoxy-2-oxo-1,2,3,4-tetrahydroquinolin-7-yl)ethyl]piperidin-4-yl}-1H-indole-6-carboxamide], the ED50 under setting [1] was 0.3 mg/kg.

`COc1cc2cccnc2cc1CCN1CCC(n2ccc3ccc(C(N)=O)cc32)CC1` [Compound 51, 1-{1-[2-(6-methoxyquinolin-7-yl)ethyl]piperidin-4-yl}-1H-indole-6-carboxamide] gave an ED50 of 0.66 mg/kg.

Regarding `COc1ccc2c(c1CCN1CCC(n3ccc4ccc(C(N)=O)cc43)CC1)CCC2=O` [Compound 25, 1-{1-[2-(5-methoxy-1-oxoindan-4-yl)ethyl]piperidin-4-yl}-1H-indole-6-carboxamide], the ED50 under setting [1] came to 0.1 mg/kg.

For the compound `CNC(=O)c1ccc2ccn(C3CCN(CCc4c(OC)ccc5c4OC(C)(C)CC5=O)CC3)c2c1` [Compound 20, 1-{1-[2-(7-methoxy-2,2-dimethyl-4-oxochroman-8-yl)ethyl]piperidin-4-yl}-N-methyl-1H-indole-6-carboxamide], under setting [1], the ED50 worked out at 0.03 mg/kg.

Consider `CCn1c(=O)oc2cc(OC)c(CCN3CCC(n4ccc5ccc(C(N)=O)cc54)CC3)cc21` [Compound 60, 1-{1-[2-(3-ethyl-6-methoxy-2-oxo-2,3-dihydrobenzoxazol-5-yl)ethyl]piperidin-4-yl}-1H-indole-6-carboxamide], for which, under setting [1], the ED50 amounted to 0.52 mg/kg.

Turning to `COc1cc2c(cc1CCN1CCC(n3ccc4ccc(C(N)=O)cc43)CC1)N(C(C)=O)CCC2` [Compound 52, 1-{1-[2-(1-acetyl-6-methoxy-1,2,3,4-tetrahydroquinolin-7-yl)ethyl]piperidin-4-yl}-1H-indole-6-carboxamide], under setting [1], the ED50 is 0.5 mg/kg.

For `COc1ccc2oc(C)nc2c1CCN1CCC(n2ccc3ccc(C(N)=O)cc32)CC1` [Compound 7, 1-{1-[2-(5-methoxy-2-methylbenzoxazol-4-yl)ethyl]piperidin-4-yl}-1H-indole-6-carboxamide], the ED50 under setting [1] was found to be 0.38 mg/kg.

With `COc1ccc2c(=O)c(C)c(C)oc2c1CCN1CCC(n2ccc3ccc(C(N)=O)cc32)CC1` [Compound 36, 1-{1-[2-(7-methoxy-2,3-dimethyl-4-oxo-4H-chromen-8-yl)ethyl]piperidin-4-yl}-1H-indole-6-carboxamide], under setting [1], the ED50 came to 0.2 mg/kg.

On to `COc1cc2nc(C)sc2cc1CCN1CCC(n2ccc3ccc(C(N)=O)cc32)CC1` [Compound 28, 1-{1-[2-(5-methoxy-2-methylbenzothiazol-6-yl)ethyl]piperidin-4-yl}-1H-indole-6-carboxamide], for which the ED50 under setting [1] turned out to be 0.02 mg/kg.

For `COc1cc2c(cc1CCN1CCC(n3ccc4ccc(C(N)=O)cc43)CC1)N(C)C(=O)CC2` [Compound 57, 1-{1-[2-(6-methoxy-1-methyl-2-oxo-1,2,3,4-tetrahydroquinolin-7-yl)ethyl]piperdin-4-yl}-1H-indole-6-carboxamide], the ED50 under setting [1] turned out to be 0.1 mg/kg.

With `COc1cc2c(cc1CCN1CCC(n3ccc4ccc(C(N)=O)cc43)CC1)C(=O)N(C)CCO2` [Compound 9, 1-{1-[2-(8-methoxy-4-methyl-5-oxo-2,3,4,5-tetrahydrobenzo[f][1,4]oxazepin-7-yl)ethyl]piperidin-4-yl}-1H-indole-6-carboxamide], under setting [1], the ED50 came to 0.3 mg/kg.

As for `COc1cc2c(cc1CCN1CCC(n3ccc4ccc(C(N)=O)cc43)CC1)OCCO2` [Compound 31, 1-{1-[2-(7-methoxy-2,3-dihydrobenz[1,4]dioxin-6-yl)ethyl]piperidin-4-yl}-1H-indole-6-carboxamide], the ED50 under setting [1] stood at 0.04 mg/kg.

Regarding `COc1cc2oc(C)nc2cc1CCN1CCC(n2ccc3ccc(C(N)=O)cc32)CC1` [Compound 4, 1-{1-[2-(6-methoxy-2-methylbenzoxazol-5-yl)ethyl]piperidin-4-yl}-1H-indole-6-carboxamide], under setting [1], the ED50 worked out at 0.1 mg/kg.

For the compound `COc1ccc2c(=O)ccoc2c1CCN1CCC(n2ccc3ccc(C(N)=O)cc32)CC1` [Compound 35, 1-{1-[2-(7-methoxy-4-oxo-4H-chromen-8-yl)ethyl]piperidin-4-yl}-1H-indole-6-carboxamide], the ED50 under setting [1] stood at 0.2 mg/kg.

Take `COc1ccc2c(c1CCN1CCC(n3ccc4ccc(C(N)=O)cc43)CC1)CCCN2C(C)=O` [Compound 54, 1-{1-[2-(1-acetyl-6-methoxy-1,2,3,4-tetrahydroquinolin-5-yl)ethyl]piperidin-4-yl}-1H-indole-6-carboxamide]: the median effective dose (ED50) under setting [1] turned out to be 0.84 mg/kg.

With `COc1ccc2ncccc2c1CCN1CCC(n2ccc3ccc(C(N)=O)cc32)CC1` [Compound 30, 1-{1-[2-(6-methoxyquinolin-5-yl)ethyl]piperidin-4-yl}-1H-indole-6-carboxamide], the ED50 under setting [1] amounted to 0.62 mg/kg.

As for `COc1ccc2nc(C)oc2c1CCN1CCC(n2ccc3ccc(C(N)=O)cc32)CC1` [Compound 3, 1-{1-[2-(6-methoxy-2-methylbenzoxazol-7-yl)ethyl]piperidin-4-yl}-1H-indole-6-carboxamide], under setting [1], the ED50 was 0.18 mg/kg.

As to `COc1ccc2c(c1CCN1CCC(n3ccc4ccc(C(N)=O)cc43)CC1)OCCC2O` (centres unmarked) [Compound 46, 1-{1-[2-(4-hydroxy-7-methoxychroman-8-yl)ethyl]piperidin-4-yl}-1H-indole-6-carboxamide], under setting [1], the ED50 is 0.3 mg/kg.
